From article PMC4790425 (Journal of medicinal chemistry, 2015) come the findings set out here.

Substitutions are numbered along the chain they refer to. “Also recorded” adds a separate entry of the source.

Assay [1] addresses T1, CCK1R WT (Homo sapiens, UniProt P32238).
T1 sequence (P32238 1-428): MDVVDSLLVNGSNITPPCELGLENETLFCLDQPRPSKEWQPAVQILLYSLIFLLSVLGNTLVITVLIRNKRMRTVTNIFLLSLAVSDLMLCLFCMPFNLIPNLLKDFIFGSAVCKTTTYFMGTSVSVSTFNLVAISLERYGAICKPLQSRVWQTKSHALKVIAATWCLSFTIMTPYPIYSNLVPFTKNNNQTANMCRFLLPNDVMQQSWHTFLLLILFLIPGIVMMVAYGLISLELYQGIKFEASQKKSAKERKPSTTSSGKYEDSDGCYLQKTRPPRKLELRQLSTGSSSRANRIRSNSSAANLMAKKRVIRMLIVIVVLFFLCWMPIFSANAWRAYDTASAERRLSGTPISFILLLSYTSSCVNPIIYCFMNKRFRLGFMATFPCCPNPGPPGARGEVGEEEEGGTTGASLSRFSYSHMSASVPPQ
As to the kind of experiment: Competition binding with 125I-BDZ-1, CHO membranes. The following applies: for α (cooperativity constant): 125I-BDZ-1 radioligand, allosteric ternary complex model.

In assay [2] the target is T1, CCK1R WT. As to the kind of experiment: Competition binding with 125I-CCK, CHO membranes. The following applies: 125I-CCK radioligand; allosteric ternary complex model.
Assay [3] addresses T2, CCK2R WT (Homo sapiens, UniProt P32239).
T2 sequence (P32239 1-447): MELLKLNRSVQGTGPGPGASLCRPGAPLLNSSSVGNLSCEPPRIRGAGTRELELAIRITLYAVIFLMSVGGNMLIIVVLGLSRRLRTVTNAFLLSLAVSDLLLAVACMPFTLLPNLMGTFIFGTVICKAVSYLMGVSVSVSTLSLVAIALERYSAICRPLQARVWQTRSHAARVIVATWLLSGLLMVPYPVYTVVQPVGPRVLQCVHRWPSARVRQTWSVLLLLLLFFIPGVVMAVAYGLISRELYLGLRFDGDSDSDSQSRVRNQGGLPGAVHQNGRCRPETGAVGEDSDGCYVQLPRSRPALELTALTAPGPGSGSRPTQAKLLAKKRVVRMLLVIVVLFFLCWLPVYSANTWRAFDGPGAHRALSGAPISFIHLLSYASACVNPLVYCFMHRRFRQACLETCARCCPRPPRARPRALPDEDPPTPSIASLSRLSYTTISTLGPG
As to the kind of experiment: Intracellular calcium response, CHO-CCK2R cells. Type of assay: cell-based. In general terms: Calcium assays in cells follow changes in intracellular calcium, usually with a dye or a luminescent sensor.

Assay [4] deals with T1, CCK1R WT. The following applies: compared with CCK at the CCK1R.
In assay [5] the target is T2, CCK2R WT. As to the kind of experiment: Competition binding with 125I-CCK, CHO membranes. The conditions noted are these: for α (cooperativity constant): 125I-CCK radioligand, allosteric ternary complex model; for inhibition of saturable 125I-CCK binding: maximal inhibition at CCK2R.
Assay [6] addresses T2, CCK2R WT. As to the kind of experiment: Competition binding with 125I-BDZ-2, CHO membranes. The conditions noted are these: 125I-BDZ-2 radioligand; allosteric ternary complex model.
Assay [7] addresses T3, wild type rat CCK1R (Rattus norvegicus, UniProt P30551).
T3 sequence (P30551 1-444): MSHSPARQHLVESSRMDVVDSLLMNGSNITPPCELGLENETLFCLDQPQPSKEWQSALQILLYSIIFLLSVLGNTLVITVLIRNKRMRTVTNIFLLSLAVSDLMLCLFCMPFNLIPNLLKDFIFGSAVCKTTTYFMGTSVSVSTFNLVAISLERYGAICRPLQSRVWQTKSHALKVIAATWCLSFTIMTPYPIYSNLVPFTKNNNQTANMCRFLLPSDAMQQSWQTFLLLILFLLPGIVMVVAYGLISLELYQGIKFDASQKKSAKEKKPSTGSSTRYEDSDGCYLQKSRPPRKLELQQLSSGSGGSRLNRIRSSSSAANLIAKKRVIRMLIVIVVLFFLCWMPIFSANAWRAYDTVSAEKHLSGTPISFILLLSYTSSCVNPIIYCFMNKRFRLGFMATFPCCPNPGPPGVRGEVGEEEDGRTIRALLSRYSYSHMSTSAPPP
As to the kind of experiment: Competition binding with 125I-BDZ-1, receptor expressed in COS cells.

Assay [8] addresses T4, rCCK1R-Ala317,321,325 (Rattus norvegicus, UniProt P30551, I332A/L340A/V336A).
T4 sequence (P30551 1-444 I332A/V336A/L340A): T3 sequence (P30551 1-444) with I332A, V336A, L340A
Type of assay: binding. The conditions noted are these: non-dimerizing rat mutant.

Take `CC(C)N(Cc1ccccc1)C(=O)CN1C(=O)[C@@H](Cc2c[nH]c3ccccc23)c2nnc(-c3ccccc3)n2-c2ccccc21` [CE-326597, N-benzyl-2-[(4S)-4-(1H-indol-3-ylmethyl)-5-oxo-1-phenyl-4,5-dihydro-6H-[1,2,4]triazolo[4,3-a][1,5]benzodiazepin-6-yl]-N-isopropylacetamide]: the “α (cooperativity constant)” value in assay [1] is 0.54 ± 0.06; in assay [2], approximately 0.00; in assay [5] it was 0.32 ± 0.01; in assay [6] it was 0.47 ± 0.06. Moreover, the “biological (agonist) response at the CCK2R” value in assay [3] is given as “weak partial agonist; also recorded: very weak partial agonist”. Besides, in assay [4], the “maximal intracellular calcium response” value is on record as “not statistically different from those elicited by CCK”. In addition, the “inhibition of saturable 125I-CCK binding” value in assay [5] is recorded as “approximately 60%”.
Consider `Cc1cc(C)cc(C[C@H]2CCCCN2C(=O)CN2C(=O)[C@@H](Cc3n[nH]c4ccccc34)c3nnc(-c4ccccc4)n3-c3ccccc32)c1` [PF-04756956, (4S)-6-{2-[(2R)-2-(3,5-dimethylbenzyl)piperidin-1-yl]-2-oxoethyl}-4-(1H-indazol-3-ylmethyl)-1-phenyl-4H-[1,2,4]triazolo[4,3-a][1,5]benzodiazepin-5(6H)-one], for which the “α (cooperativity constant)” value is reported as 0.65 ± 0.08 in assay [1], approximately 0.0 in assay [2], 0.32 ± 0.07 in assay [5] and 0.60 ± 0.04 in assay [6]. The “biological (agonist) response at the CCK2R” value in assay [3] was “no agonist activity at all; also recorded: no biological response”. In assay [4], the “maximal intracellular calcium response” value is on record as “not statistically different from those elicited by CCK”. In assay [5], the “inhibition of saturable 125I-CCK binding” value is “approximately 60%”.
As for `CN1C(=O)[C@@H](NC(=O)Nc2cccc(I)c2)N=C(c2ccccc2)c2ccccc21` [BDZ-1, (S)-1-(3-iodophenyl)-3-(1-methyl-2-oxo-5-phenyl-2,3-dihydro-1H-enzo[e][1,4]diazepin-3-yl)urea], the entries for the “pKi, BDZ-1 binding affinity” value in assay [1] (wild type human CCK1R), in assay [7] and in assay [8] were 8.38 ± 0.16, 9.55 ± 0.25 and 9.66 ± 0.09, respectively.
